From patent US8686165B2, “Process for preparation of taxane derivatives” (Emcure Pharmaceuticals Limited, priority 2009, dated 2014)
Where a name gives a salt, the structure may show the parent alone. Read-outs that look alike come from different tables or passages of the source.

Tests used:
[1] = Comparative stability profile of docetaxel in solution at 35° C. with and without aluminum sulphate; type: physicochemical; settings: for Epi-Docetaxel / Docetaxel: solution at 35° C., trihydrate; for Epi-Docetaxel: 360 min (6 hours); for Docetaxel: 360 min
Procedure: The docetaxel solution prepared according to present invention had 0.19% of epi-docetaxel after 6 hours.

[2] = as above; type: physicochemical
[3] = type: physicochemical; settings: 25 ± 2° C./60 ± 5% RH

Structure (SMILES): CC(=O)O[C@@]12CO[C@@H]1C[C@H](O)[C@@]1(C)C(=O)[C@H](O)C3=C(C)[C@@H](OC(=O)[C@H](O)[C@@H](NC(=O)OC(C)(C)C)c4ccccc4)C[C@@](O)([C@@H](OC(=O)c4ccccc4)[C@H]21)C3(C)C.O.O.O [Example 1, Docetaxel trihydrate]
- reduction in formation of the epi-isomer degradation product ([1]; compared to a solution prepared without addition of a metal salt): almost a five-fold reduction
- Epi-Docetaxel [1]: 0.19%
- Docetaxel [1]: 99.38%
- Docetaxel ([2]; 30 min, trihydrate): 99.62%
- Epi-Docetaxel ([2]; 30 min, trihydrate): 0.11%
- Docetaxel ([2]; 60 min, trihydrate): 99.50%
- Epi-Docetaxel ([2]; 60 min, trihydrate): 0.12%
- Epi-Docetaxel ([2]; 360 min (6 hours), listed as docetaxel solution prepared according to present invention, trihydrate): 0.19%
- Docetaxel ([2]; Initial): 99.68%
- Epi-Docetaxel ([2]; Initial): 0.11%

Structure (SMILES): CC(=O)O[C@@]12CO[C@@H]1C[C@H](O)[C@@]1(C)C(=O)[C@H](O)C3=C(C)[C@@H](OC(=O)[C@H](O)[C@@H](NC(=O)OC(C)(C)C)c4ccccc4)C[C@@](O)([C@@H](OC(=O)c4ccccc4)[C@H]21)C3(C)C.O.O.O [Example 6, Docetaxel trihydrate]
- Epi-Docetaxel [1]: 0.86%
- Docetaxel [1]: 98.81%
- Docetaxel ([2]; 30 min, trihydrate): 99.51%
- Epi-Docetaxel ([2]; 30 min, trihydrate): 0.23%
- Docetaxel ([2]; 60 min, trihydrate): 98.95%
- Epi-Docetaxel ([2]; 60 min, trihydrate): 0.34%
- Epi-Docetaxel ([2]; 360 min (6 hours), listed as docetaxel solution prepared without using aluminum sulfate, trihydrate): 0.86%
- Docetaxel ([2]; Initial): 99.68%
- Epi-Docetaxel ([2]; Initial): 0.11%

Structure (SMILES): CC(=O)O[C@@]12CO[C@@H]1C[C@H](O)[C@@]1(C)C(=O)[C@H](O)C3=C(C)[C@@H](OC(=O)[C@H](O)[C@@H](NC(=O)OC(C)(C)C)c4ccccc4)C[C@@](O)([C@@H](OC(=O)c4ccccc4)[C@H]21)C3(C)C.O.O.O [Example 2, Docetaxel trihydrate]
- 7-Epi-docetaxel ([3]; 1 Month): 0.022%
- 10-Deacetyl baccatin III ([3]; 1 Month): 0.01%
- Any individual unspecified unidentified impurity ([3]; 1 Month): 0.076%
- Total impurities ([3]; 1 Month, listed as docetaxel preparing by a process of the present invention, trihydrate): 0.27%
- Total impurities ([3]; 1 Month, trihydrate): 0.27%
- 7-Epi-docetaxel ([3]; 2 Month): 0.044%
- 10-Deacetyl baccatin III ([3]; 2 Month): 0.01%
- Any individual unspecified unidentified impurity ([3]; 2 Month): 0.083%
- Total impurities ([3]; 2 Month): 0.27%
- 7-Epi-docetaxel ([3]; Initial): 0.02%
- Any individual unspecified unidentified impurity ([3]; Initial): 0.07%
- Total impurities ([3]; Initial): 0.25%

Structure (SMILES): CC(=O)O[C@@]12CO[C@@H]1C[C@H](O)[C@@]1(C)C(=O)[C@H](O)C3=C(C)[C@@H](OC(=O)[C@H](O)[C@@H](NC(=O)OC(C)(C)C)c4ccccc4)C[C@@](O)([C@@H](OC(=O)c4ccccc4)[C@H]21)C3(C)C [Without potassium aluminum sulfate, docetaxel]
- 7-Epi-10-deacetyl baccatin III ([3]; 1 Month): 0.08%
- 7-Epi-10-oxo-10-deacetyl baccatin III ([3]; 1 Month): 0.01%
- 7-Epi-10-oxo-Docetaxel ([3]; 1 Month): 0.01%
- 7-Epi-docetaxel ([3]; 1 Month): 0.18%
- 10-Deacetyl baccatin III ([3]; 1 Month): 0.07%
- Any individual unspecified unidentified impurity ([3]; 1 Month): 0.07%
- Total impurities ([3]; 1 Month): 0.58%
- Total impurities ([3]; 1 Month, listed as docetaxel prepared without using potassium aluminum sulfate): 0.58%
